What was measured:
[1] = biological target: T1, programmed cell death protein 1 (PD-1) (Homo sapiens, UniProt Q15116); test: intrinsic fluorescence quenching (Stern-Volmer, static quenching); format: binding
T1 construct: gene PDCD1; human PD-1 protein

[2] = biological target: T2, programmed death-ligand 1 (PD-L1) (Homo sapiens, UniProt Q9NZQ7); test: as above; format: binding
T2 construct: gene CD274; recombinant human PD-L1 protein
T2 sequence (Q9NZQ7 19-290): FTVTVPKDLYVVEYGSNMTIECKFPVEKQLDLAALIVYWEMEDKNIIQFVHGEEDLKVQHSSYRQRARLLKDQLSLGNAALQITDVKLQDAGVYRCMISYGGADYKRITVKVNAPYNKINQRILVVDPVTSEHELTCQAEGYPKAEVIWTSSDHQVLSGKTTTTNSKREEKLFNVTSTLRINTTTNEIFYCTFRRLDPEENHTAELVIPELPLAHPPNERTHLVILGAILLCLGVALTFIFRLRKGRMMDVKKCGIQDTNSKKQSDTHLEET

T1 sequence (Q15116 25-288): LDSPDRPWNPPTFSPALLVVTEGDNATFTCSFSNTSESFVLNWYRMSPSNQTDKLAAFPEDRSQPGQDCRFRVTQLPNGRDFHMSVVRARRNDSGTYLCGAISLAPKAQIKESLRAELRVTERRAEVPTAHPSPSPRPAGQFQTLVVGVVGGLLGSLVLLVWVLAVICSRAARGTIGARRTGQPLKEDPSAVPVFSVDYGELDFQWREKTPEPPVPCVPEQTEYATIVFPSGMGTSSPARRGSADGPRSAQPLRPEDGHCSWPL

Structure (SMILES) | intrinsic fluorescence quenching (Stern-Volmer, static quenching) [1] | intrinsic fluorescence quenching (Stern-Volmer, static quenching) [2]
OCC1OC(Oc2cc3c(O)cc(O)cc3[o+]c2-c2ccc(O)c(O)c2)C(O)C(O)C1O (stereo not shown) [C3G, cyanidin-3-O-glucoside] | C3G and D3G showed static quenching with both PD-1 and PD-L1 | C3G and D3G showed static quenching with both PD-1 and PD-L1
OCC1OC(Oc2cc3c(O)cc(O)cc3[o+]c2-c2cc(O)c(O)c(O)c2)C(O)C(O)C1O (stereo not shown) [D3G, delphinidin-3-O-glucoside] | C3G and D3G showed static quenching with both PD-1 and PD-L1 | C3G and D3G showed static quenching with both PD-1 and PD-L1

Source: article PMC6689002, “Anthocyanins, delphinidin-3-O-glucoside and cyanidin-3-O-glucoside, inhibit immune checkpoints in human colorectal cancer cells in vitro and in silico” (Scientific Reports, 2019)
